Data taken from PubChem BioAssay AID179 (DTP/NCI, 2004).
The source made the active and inactive calls.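 The calls were made as follows: active = compounds giving half or more protection of infected cells from virus-caused growth loss, again on retest; inactive = the rest.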 Where a SMILES comes first, the peptide text is derived from it. Bridges are numbered along the chain shown (N, C = ends). The star is where a group is joined. Cbz = O=C(OCc1ccccc1)*

System: CEM cells HIV-1 protection, formazan growth assay
Experiment: NCI AIDS Antiviral Assay
Conditions: for IC50: measured here: growth of uninfected CEM cells
Outline: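 Protection of CEM cells against HIV-1 measured as cell growth via soluble formazan read-out, with five concentrations tested on both infected and uninfected cells; failure to protect may reflect toxicity.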

O=c1c2ccccc2nc2sc(/N=C/C=C/c3ccccc3)nn12
EC50: > 200 µM
IC50: 41.7 µM

CCCCN1C(=O)c2cccc3cccc(c23)C1=O
EC50: > 200 µM
IC50: 112 µM

CCOC(=O)c1ccc(-n2c(SCC)nc3sc(C)c(C)c3c2=O)cc1
EC50: > 200 µM
IC50: > 200 µM

CCCCCC=C(c1cc(Cl)c(OC)c(C(N)=O)c1)c1cc(Cl)c(OC)c(C(N)=O)c1
EC50: 1.82 µM
IC50: 15.8 µM

CC1OC(OC2C(CO)OC(O[C@H]3CC[C@@]4(C)C(=CC[C@H]5[C@@H]6C[C@@H]7O[C@](O)(CC[C@@H](C)COC8OC(CO)C(O)C(O)C8O)[C@@H](C)[C@@H]7[C@@]6(C)CC[C@@H]54)C3)C(OC3OC(C)C(O)C(O)C3O)C2O)C(O)C(O)C1O (some centres not stated)
EC50: > 200 µM
IC50: 1.86 µM

c1ccc2c3csc4ccccc4c-3nc2c1
outcome: inactive

O=S1c2ccccc2N=C(c2ccc3ccccc3c2)CC1c1ccccc1F (configuration not stated)
EC50: > 18.2 µM
IC50: > 18.2 µM

CCCCCCCC1c2cc3[nH]c(cc4nc(cc5[nH]c(cc(n2)[C@@]1(C)CC(=O)N(C)C)c(C)c5CCC(=O)O)C(CCC(=O)O)=C4C)cc3C (some centres not stated)
EC50: > 200 µM
IC50: 7.59 µM

COC(=O)c1cc2c(=O)n(C)c3ccccc3n2c1C(=O)OC
EC50: > 56.2 µM
IC50: 32.4 µM

COc1ccc2c(c1OC)C(=O)O[C@@H]2C1c2cc3c(cc2CCN1C)OCO3 (some centres not stated)
EC50: > 245 µM
IC50: > 245 µM

CCCCCCCCC(=O)N(C)C1C2CN3CCC(O2)C13 (configuration not stated)
outcome: inactive

NC1=C(c2nc(-c3cc4ccccc4oc3=O)cs2)C(c2ccco2)c2c(c3ccccc3oc2=O)O1 (configuration not stated)
EC50: > 100 µM
IC50: > 100 µM

S=C(Nc1ccccc1)N(/N=C/C=C/c1ccccc1)c1nnc(-c2ccccc2)c(-c2ccccc2)n1
EC50: > 70.8 µM
IC50: 43.7 µM

CC1=C(O[Si](C(C)C)(C(C)C)C(C)C)C2CC1(OS(=O)(=O)C(F)(F)F)[C@H]1C(=O)N(c3ccccc3)C(=O)[C@@H]21 (some centres not stated)
EC50: > 4.79 µM
IC50: > 4.79 µM

COc1ccc(-c2[nH]c(-c3ccc(OC)cc3)c(-c3ccccn3)c2-c2ccccn2)cc1
EC50: > 200 µM
IC50: 24.5 µM

O=C1CCN2CCCC1C2 (configuration not stated)
EC50: > 1410 µM
IC50: 1290 µM

N#Cc1c(-c2ccccc2)/c(=C\O)c(=O)n2c1nc1ccccc12
EC50: > 200 µM
IC50: 32.4 µM

CC(NC(=O)C(=O)N/N=C1\CC(c2ccccc2)Sc2ccccc21)c1ccccc1 (configuration not stated)
outcome: inactive

O=S(=O)(O)c1cc(O)c2c(O)cc(S(=O)(=O)O)c(N=Nc3ccc(/C=C/c4ccc(N=Nc5c(S(=O)(=O)O)cc(O)c6c(O)cc(S(=O)(=O)O)cc56)cc4S(=O)(=O)O)c(S(=O)(=O)O)c3)c2c1
EC50: 15.5 µM
IC50: 75.9 µM

CC1Oc2cc3c(-c4c(O)cc(O)c5c(O)c6c(cc45)OC(C)C(C)C6=O)c(O)cc(O)c3c(O)c2C(=O)C1C (configuration not stated)
EC50: > 34.7 µM
IC50: 0.38 µM

COc1ccc(Oc2ccccc2N)cc1
outcome: inactive

N#C/C(=C\n1ccc(=O)[nH]c1=S)C(N)=O
EC50: > 200 µM
IC50: > 200 µM

CCCCN(CCC/C=C/OC)C(C#N)c1ccccc1 (configuration not stated)
EC50: > 871 µM
IC50: > 871 µM

CC1(C)COC(c2cccc(C3=NC(C)(C)CO3)c2Br)=N1
EC50: > 200 µM
IC50: 151 µM

Cc1cn(C2CC(N=[N+]=[N-])C(COC(=O)CCCCCCCCCCCF)O2)c(=O)[nH]c1=O (configuration not stated)
EC50: 0.162 µM
IC50: 2 µM

Cc1nc(N)c(N2CCN(C#N)CC2)c(=O)[nH]1
EC50: > 200 µM
IC50: > 200 µM

O=C(CC(C(=O)c1ccsc1)c1cccs1)c1cccs1 (configuration not stated)
EC50: > 21.9 µM
IC50: > 21.9 µM

COc1ccccc1C1(c2ccccc2OC)OC(=O)c2ccccc21
EC50: > 200 µM
IC50: 30.9 µM

O=[C]=[Fe+].O=[C]=[Fe].[C-]1=CCC=C1.[CH-]=O.[CH-]=O.c1cc[cH-]c1
EC50: > 200 µM
IC50: 21.4 µM

C/C=C/CC1(C(C)C)C(=O)NC(=S)NC1=O
EC50: > 200 µM
IC50: > 200 µM

O=C(C(=Cc1ccccc1)C(=O)c1ccccc1)c1ccccc1
EC50: > 43.7 µM
IC50: 14.5 µM

O=C(O)C12CC=CCC1(C(=O)O)CC=CC2 (configuration not stated)
EC50: > 200 µM
IC50: > 200 µM

Cc1cc(C)c2c(c1)CC1(Cc3c(C)cc(C)cc3C1=O)C2=O (configuration not stated)
EC50: > 100 µM
IC50: > 100 µM

CC(=NNC(=S)Nc1ccccc1C)c1cccc(C(C)=NNC(=S)Nc2ccccc2C)n1
EC50: > 200 µM
IC50: 110 µM

CC1=NN(c2ccccc2)C(=O)C12[C@H](c1ccccc1)C2(C#N)C#N (some centres not stated)
EC50: > 21.9 µM
IC50: 3.39 µM

CN(NC(=O)/C(=C/C=C/c1ccccc1)NC(=O)c1ccccc1)C1=C(Cl)C(=O)[N+](c2ccccc2)=CC1
EC50: > 200 µM
IC50: 35.5 µM

CCC/C=C/C=C/C(=O)OC1C(C)C2(O)C3C=C(C)C(=O)C3CC(COC(C)=O)=CC2C2C(C)(C)C12OC(=O)C(C)C (configuration not stated)
EC50: 0.977 µM
IC50: 1.02 µM

O=C(CCC(=O)c1ccsc1)c1ccsc1
EC50: > 200 µM
IC50: > 200 µM

CN/N=C(/c1nc2ccc([N+](=O)[O-])cc2[nH]c1=O)C(O)c1ccc(C(O)/C(=N\NC)c2nc3ccc([N+](=O)[O-])cc3[nH]c2=O)cc1 (configuration not stated)
EC50: > 107 µM
IC50: 77.6 µM

CC(=O)N(C(C)=O)n1c(-c2ccccc2)n[nH]c1=O
EC50: > 200 µM
IC50: > 200 µM

O=c1ccn(C(CO)OC(CO)CCP(=O)(O)O)c(=O)[nH]1 (configuration not stated)
EC50: > 200 µM
IC50: > 200 µM

CS/C=C\C(=O)O[C@H]1C[C@@H]2[C@@H](O)c3occ(C)c3C[C@]2(C)[C@@H](C)C1
EC50: > 200 µM
IC50: 30.2 µM

CCOC(=O)C1(C(=O)OCC)CCCN1C(=O)[C@H](CNC(=O)OC(C)(C)C)NC(=O)OCc1ccccc1
outcome: inactive

CC(C)OP(=O)(CP(=O)(OC(C)C)OC(C)C)CP(=O)(OC(C)C)OC(C)C
EC50: > 537 µM
IC50: 93.3 µM

Nc1nc(Cl)cc(NCC2(O)CCCC2)n1
EC50: > 200 µM
IC50: 166 µM

O=C1/C(=C\c2cccc(Oc3ccccc3)c2)S(=O)(=O)C(c2ccccc2)N1Cc1ccccc1 (configuration not stated)
EC50: > 20 µM
IC50: > 20 µM

Oc1ccc(S)cc1CNc1ccccc1
EC50: > 200 µM
IC50: 22.4 µM

O=c1c2ccccc2ncn1COCc1ccccc1
EC50: > 200 µM
IC50: > 200 µM

CC1SC(=S)N(c2ccc(Cl)cc2)C1=O (configuration not stated)
EC50: > 138 µM
IC50: 67.6 µM

c1ccc(-c2nc3sccn3n2)cc1
outcome: inactive

O=C(/C=C/c1ccc(C(F)(F)F)cc1)c1c([O-])on[n+]1-c1ccccc1
outcome: inactive

NCCCOCC(=O)O
outcome: inactive

CC/C(=C(\c1ccccc1)c1ccc(OCC[N+](C)(C)C)cc1)c1ccccc1
outcome: inactive

CNC(=O)C1CCCCNC(=O)CCC(NC(=O)OCc2ccccc2)C(=O)N1 (stereo not drawn) (Cbz-Glu-Lys-NHMe; lactam 1-2; configuration not given here)
EC50: > 200 µM
IC50: > 200 µM

Cc1csc(N2C(=O)c3cccc4cccc(c34)C2=O)n1
EC50: > 200 µM
IC50: 64.6 µM

C[C@H]1CC[C@@H]2[C@@H](C)C[C@H]3[C@@H]4C(C)(C)OC(=O)[C@]4(C)C(=O)[C@@]23C1=O
EC50: > 200 µM
IC50: 77.6 µM

Oc1ccc([S+](c2ccc(O)cc2)c2ccc(O)cc2)cc1
EC50: > 145 µM
IC50: > 145 µM

COC(=O)/C=C\COCC1C2CCC(=O)C21 (configuration not stated)
EC50: > 50.1 µM
IC50: 28.2 µM

Cc1cc(C)c2c(c1N)C(=O)CCO2
outcome: inactive

O=[N+]([O-])c1ccc(S(=O)(=O)n2c3ccc(Br)cc3c3nc4ccccc4nc32)cc1
EC50: > 100 µM
IC50: > 100 µM

CC1CCC2(OCCO2)[C@]2(C)CC(O)C(=O)C=C12 (some centres not stated)
outcome: inactive

Clc1ccc(-c2c3nc(c(-c4ccc(Cl)cc4)c4ccc([nH]4)c(-c4ccc(Cl)cc4)c4nc(c(-c5ccc(Cl)cc5)c5ccc2[nH]5)C=C4)C=C3)cc1
EC50: > 200 µM
IC50: > 200 µM

S=c1nc(Cc2ccc(Cl)cc2)[nH][nH]1
EC50: > 200 µM
IC50: 56.2 µM

COC(OC)c1cccc2c1C1(O)CCC3(CC21)OCCCCO3 (configuration not stated)
EC50: > 200 µM
IC50: > 200 µM

CCOC(=O)Cn1c(C)nc2nn(Cc3ccccc3)cc2c1=O
EC50: > 200 µM
IC50: > 200 µM

Cc1cccc(C[P+](c2ccccc2)(c2ccccc2)c2ccccc2)c1
EC50: > 200 µM
IC50: 0.631 µM

COc1cc(-c2c(C)c(C)nc(OC)c2C#N)cc(OC)c1OC
EC50: 22.9 µM
IC50: > 100 µM

O=C1c2ccccc2C(=O)N1n1c(Cc2ccc(Cl)cc2)n[nH]c1=O
EC50: > 200 µM
IC50: > 200 µM

CCOC(=O)C(NC(=O)c1cccc(Cl)c1)(N1CCN(c2cc3c(cc2F)c(=O)c(C(=O)O)cn3CC)CC1)C(F)(F)F (configuration not stated)
EC50: > 200 µM
IC50: 0.339 µM

COc1c(Sc2c(SCSc3cnc4ccccc4c3Sc3cnc4ccccc4c3OC)cnc3ccccc23)cnc2ccccc12
EC50: > 100 µM
IC50: > 100 µM

O=C(/C=C/c1ccc(Cl)c(Cl)c1)c1ccc(F)cc1
EC50: > 1.86 µM
IC50: > 1.86 µM

O=[N+]([O-])c1cnc(-c2ccc(F)cc2)n1CCO
EC50: > 200 µM
IC50: > 200 µM

CCN(CC)C(=O)CCCCCCCCC1CO1 (configuration not stated)
EC50: > 200 µM
IC50: 115 µM

c1ccc(CSc2nc3ccccc3nc2-c2cccs2)cc1
EC50: > 21.4 µM
IC50: > 21.4 µM

CC1(C)C2CCC1C(SC(=N)N)C2 (configuration not stated)
EC50: > 200 µM
IC50: 43.7 µM

O=C(O)c1cnc2c(ccc3[nH]cccc32)c1=O
EC50: > 75.9 µM
IC50: > 75.9 µM

COc1cc(/C=C/C(=O)CC(=O)/C=C/c2ccc(O)c(OC)c2)ccc1O (tested in a mixture with another compound)
EC50: > 200 µM
IC50: 3.31 µM

Brc1cc2[nH]c(-c3ccccc3)c(Br)c2c(Br)c1Br
EC50: > 200 µM
IC50: 5.13 µM

Cc1ccc(C)c(NC(=O)/C(=N\N)C(c2cnc3ccc([N+](=O)[O-])cc3n2)[N+](=O)[O-])c1 (configuration not stated)
EC50: > 589 µM
IC50: 219 µM

Cc1cc(NS(=O)(=O)c2ccc(NC(=O)c3ccc4nc5ccccc5c(Nc5ccc(S(=O)(=O)Nc6cc(C)on6)cc5)c4c3)cc2)no1
EC50: 67.6 µM
IC50: > 100 µM

Cc1cc(C)n(-c2c(O)ccc(O)c2-n2nc(C)cc2C)n1
EC50: > 229 µM
IC50: 120 µM

N=C1C=C/[N+](=C\C=CCO)C([O-])=N1
outcome: active
